According to US11272709B2, “Amidine substituted benzoyl derivatives useful as herbicides” (Syngenta Participations AG, priority 2018, dated 2022):

Legend:
Format in all cases: in vivo
Settings in all cases: evaluated after 13 days
[1] = test system: Amaranthus retoflexus (AMARE); assay: Pre-emergence herbicidal glasshouse test, Amaranthus retoflexus (AMARE)
Description: (§1) Seeds of a variety of test species are sown in standard soil in pots (Lolium perenne (LOLPE), Amaranthus retoflexus (AMARE), Abutilon theophrasti (ABUTH), Setaria faberi (SETFA), Echinochloa crus-galli (ECHCG), Ipomoea hederacea (IPOHE)). After cultivation for one day (pre-emergence) or after 8 days cultivation (post-emergence) under controlled conditions in a glasshouse (at 24/16° C., day/night; 14 hours light; 65% humidity), the plants are sprayed with an aqueous spray solution derived from the formulation of the technical active ingredient in acetone/water (50:50) solution containing 0.5% Tween 20 (polyoxyethelyene sorbitan monolaurate, CAS RN 9005-64-5). Compounds are applied at 500 g/h unless otherwise indicated. The test plants are then grown in a glasshouse under controlled conditions in a glasshouse (at 24/16° C., day/night; 14 hours light; 65% humidity) and watered twice daily. After 13 days for pre and post-emergence, the test is evaluated for the percentage damage caused to the plant. The biological activities are shown in the following table on a five point scale (5=80-100%; 4=60-79%; 3=40-59%; 2=20-39%; 1=0-19%).

[2] = test system: Abutilon theophrasti (ABUTH); assay: Pre-emergence herbicidal glasshouse test, Abutilon theophrasti (ABUTH)
Description: as §1

Setaria faberi (SETFA) [3] = assay: Pre-emergence herbicidal glasshouse test, Setaria faberi (SETFA)
Description: as §1

[4] = test system: Echinochloa crus-galli (ECHCG); assay: Pre-emergence herbicidal glasshouse test, Echinochloa crus-galli (ECHCG)
Description: as §1

[5] = test system: Ipomoea hederacea (IPOHE); assay: Pre-emergence herbicidal glasshouse test, Ipomoea hederacea (IPOHE)
Description: as §1

[6] = test system: Amaranthus retoflexus (AMARE); assay: Post-emergence herbicidal glasshouse test, Amaranthus retoflexus (AMARE)
Description: as §1

[7] = test system: Abutilon theophrasti (ABUTH); assay: Post-emergence herbicidal glasshouse test, Abutilon theophrasti (ABUTH)
Description: as §1

Setaria faberi (SETFA) [8] = assay: Post-emergence herbicidal glasshouse test, Setaria faberi (SETFA)
Description: as §1

[9] = test system: Echinochloa crus-galli (ECHCG); assay: Post-emergence herbicidal glasshouse test, Echinochloa crus-galli (ECHCG)
Description: as §1

[10] = test system: Ipomoea hederacea (IPOHE); assay: Post-emergence herbicidal glasshouse test, Ipomoea hederacea (IPOHE)
Description: as §1

Structure (SMILES) | PRE Application AMARE, percentage damage (five point scale) ([1]; 500 g/h) | PRE Application ABUTH, percentage damage (five point scale) ([2]; 500 g/h) | PRE Application SETFA, percentage damage (five point scale) (Setaria faberi (SETFA) [3]; 500 g/h) | PRE Application ECHCG, percentage damage (five point scale) ([4]; 500 g/h) | PRE Application IPOHE, percentage damage (five point scale) ([5]; 500 g/h) | POST Application AMARE, percentage damage (five point scale) ([6]; 500 g/h) | POST Application ABUTH, percentage damage (five point scale) ([7]; 500 g/h) | POST Application SETFA, percentage damage (five point scale) (Setaria faberi (SETFA) [8]; 500 g/h) | POST Application ECHCG, percentage damage (five point scale) ([9]; 500 g/h) | POST Application IPOHE, percentage damage (five point scale) ([10]; 500 g/h) | PRE Application AMARE, percentage damage (five point scale) ([1]; applied at 250 g/ha) | PRE Application ABUTH, percentage damage (five point scale) ([2]; applied at 250 g/ha) | PRE Application SETFA, percentage damage (five point scale) (Setaria faberi (SETFA) [3]; applied at 250 g/ha) | PRE Application ECHCG, percentage damage (five point scale) ([4]; applied at 250 g/ha) | PRE Application IPOHE, percentage damage (five point scale) ([5]; applied at 250 g/ha) | POST Application AMARE, percentage damage (five point scale) ([6]; applied at 250 g/ha) | POST Application ABUTH, percentage damage (five point scale) ([7]; applied at 250 g/ha) | POST Application SETFA, percentage damage (five point scale) (Setaria faberi (SETFA) [8]; applied at 250 g/ha) | POST Application ECHCG, percentage damage (five point scale) ([9]; applied at 250 g/ha) | POST Application IPOHE, percentage damage (five point scale) ([10]; applied at 250 g/ha)
Cn1nnnc1NC(=O)c1ccc(C(F)(F)F)c(/N=C/N2CCCC2)c1Cl [Compound 1.132, 2-chloro-N-(1-methyltetrazol-5-yl)-3-[(E)-pyrrolidin-1-ylmethyleneamino]-4-(trifluoromethyl)benzamide] | 5 (5=80-100%) | 5 (5=80-100%) | 5 (5=80-100%) | 5 (5=80-100%) | 5 (5=80-100%) | 5 (5=80-100%) | 5 (5=80-100%) | 5 (5=80-100%) | 5 (5=80-100%) | 5 (5=80-100%) |  |  |  |  |  |  |  |  |  | 
Cn1nnnc1NC(=O)c1ccc(C(F)(F)F)c(N=CN2CCOCC2)c1Cl [Compound 1.135] |  |  |  |  |  |  |  |  |  |  | 5 (5=80-100%) | 5 (5=80-100%) | 5 (5=80-100%) | 5 (5=80-100%) | 5 (5=80-100%) | 5 (5=80-100%) | 5 (5=80-100%) | 5 (5=80-100%) | 3 (3=40-59%) | 5 (5=80-100%)
CN(C)C(=Nc1c(C(F)(F)F)ccc(C(=O)Nc2nnnn2C)c1Cl)C(F)(F)F [Compound 1.139] | 5 (5=80-100%) | 5 (5=80-100%) | 5 (5=80-100%) | 5 (5=80-100%) | 5 (5=80-100%) | 5 (5=80-100%) | 5 (5=80-100%) | 5 (5=80-100%) | 5 (5=80-100%) | 4 (4=60-79%) |  |  |  |  |  |  |  |  |  | 
CC(C)N(C)C=Nc1c(C(F)(F)F)ccc(C(=O)Nc2nnnn2C)c1Cl [Compound 1.140] | 5 (5=80-100%) | 5 (5=80-100%) | 5 (5=80-100%) | 5 (5=80-100%) | 5 (5=80-100%) | 5 (5=80-100%) | 5 (5=80-100%) | 5 (5=80-100%) | 5 (5=80-100%) | 5 (5=80-100%) |  |  |  |  |  |  |  |  |  | 
CN(C=Nc1c(S(C)(=O)=O)ccc(C(=O)Nc2nnnn2C)c1Cl)CC(F)(F)F [Compound 1.142] |  |  |  |  |  |  |  |  |  |  | 5 (5=80-100%) | 5 (5=80-100%) | 5 (5=80-100%) | 5 (5=80-100%) | 4 (4=60-79%) | 5 (5=80-100%) | 5 (5=80-100%) | 5 (5=80-100%) | 5 (5=80-100%) | 5 (5=80-100%)
Cc1c(C(=O)Nc2nnnn2C)ccc(S(C)(=O)=O)c1N=CN(C)C(C)C [Compound 1.144] | 5 (5=80-100%) | 5 (5=80-100%) | 5 (5=80-100%) | 5 (5=80-100%) | 5 (5=80-100%) | 5 (5=80-100%) | 5 (5=80-100%) | 5 (5=80-100%) | 5 (5=80-100%) | 5 (5=80-100%) |  |  |  |  |  |  |  |  |  | 
CN(C=Nc1c(S(C)(=O)=O)ccc(C(=O)Nc2nnnn2C)c1Cl)c1ccccc1 [Compound 1.145] | 5 (5=80-100%) | 5 (5=80-100%) | 5 (5=80-100%) | 5 (5=80-100%) | 4 (4=60-79%) | 4 (4=60-79%) | 3 (3=40-59%) | 5 (5=80-100%) | 5 (5=80-100%) | 4 (4=60-79%) |  |  |  |  |  |  |  |  |  | 
CC(=Nc1c(C(F)(F)F)ccc(C(=O)Nc2nnnn2C)c1Cl)N(C)C [Compound 1.148] | 5 (5=80-100%) | 5 (5=80-100%) | 5 (5=80-100%) | 5 (5=80-100%) | 5 (5=80-100%) | 5 (5=80-100%) | 4 (4=60-79%) | 5 (5=80-100%) | 5 (5=80-100%) | 4 (4=60-79%) |  |  |  |  |  |  |  |  |  | 
